In US10208210B2, “Hydrophilic oil repellent and production method of same, surface coating material, coating film, resin composition, oil-water separation filter material, and porous body” (MITSUBISHI MATERIALS CORPORATION, priority 2014, dated 2019):

Assay: Solubility of the compound in water at room temperature
Format: physicochemical
Conditions: room temperature (25° C.)
Protocol: 23.5 g of perfluoro(3-dibutylaminopropionic acid) was neutralized with 1.5 g of calcium hydroxide in a methanol/water mixed solution. The precipitated crystals were separated by filtration, and dried at 100° C., whereby 23.5 g of perfluoro(3-dibutylaminopropionic acid) calcium represented by the following formula (376) was obtained (yield of 97%). The solubility of the present compound in water at room temperature (25° C.) was 2 [g/100 g-H2O].
15.0 g of perfluoro(3-dibutylaminopropionic acid) obtained in the same manner as in Synthesis Example 1 was neutralized with 1.2 g of magnesium hydroxide in a methanol/water mixed solution. Next, the precipitated crystals were separated by filtration, and by extracting with methanol, a magnesium salt was obtained. The methanol was distilled off, whereby 14.4 g of perfluoro(3-dibutylaminopropionic acid) magnesium represented by the following formula (379) was obtained (yield of 94%). The solubility of the present compound in water at room temperature was 0.009 [g/100 g-H2O].
15.0 g of perfluoro(3-dibutylaminopropionic acid) obtained in the same manner as in Synthesis Example 1 was neutralized with 4.0 g of barium hydroxide octahydrate in a methanol/water mixed solution. […]

SMILES | solubility of the present compound in water [g/100 g-H2O]
O=C(O)C(F)(F)C(F)(F)N(C(F)(F)C(F)(F)C(F)(F)C(F)(F)F)C(F)(F)C(F)(F)C(F)(F)C(F)(F)F.[Mg] [Synthesis Example 4, perfluoro(3-dibutylaminopropionic acid) magnesium] | 0.009
O=C(O)C(F)(F)C(F)(F)N(C(F)(F)C(F)(F)C(F)(F)C(F)(F)F)C(F)(F)C(F)(F)C(F)(F)C(F)(F)F.[Ba] [Synthesis Example 5, perfluoro(3-dibutylaminopropionic acid) barium] | 0.04
